Laboratory results published in patent US10653779B2, “Formulations with reduced oxidation” (Genentech, Inc., priority 2013, dated 2020).

Key:
mAb1 = test: Ambient light exposure of 50 mg/mL mAb1 formulations containing L-Trp (Amplex assay, RP-HPLC); type: physicochemical, human
Text: While confirming the photosensitivity of free L-Trp under ICH light conditions, the effect of ambient light that was typically seen in laboratories was studied. Measurements using a DLM1 digital light meter in various labs indicated an average of 300 lux on a lab benchtop (with white fluorescent lighting), an average of 3000 lux in a laminar flow hood (with white fluorescent lighting) and about 10000 lux for a windowsill exposed to southeast sunlight. […] Peroxide production increased with both luminosity (300, 3000, and 10000 lux) and time (1, 3, and 7 days). […] These levels of light exposure and time were determined to be pharmaceutically relevant for drug substance handling under ambient light and temperature before fill/finish operations and potentially while inspecting drug product vials.

[1] = Cyclic voltammetry (CV) screening of oxidation potentials; type: physicochemical; settings: glassy carbon working electrode, 0.2 M lithium perchlorate
Procedure: The oxidation/reduction characteristics of the compounds were investigated. Several compounds, including L-Trp and derivatives, were evaluated for the protection of Trp oxidation in proteins using cyclic voltammetry (CV) and rank ordered based on their oxidation potentials (Table 2). Specifically, the candidate antioxidants were dissolved in deionized water and then added to a 0.2 M lithium perchlorate electrolyte solution. […] Solutions were scanned from −0.10 V to +1.50 V at a scan rate of either 100 or 500 mV/sec. The analytical cell was purged for four minutes with nitrogen before scanning of each antioxidant solution. The input was a linear scan of the potential of a working electrode, and the output was measurement of the resulting current. […] Redox reactions were characterized by sharp increases or decreases in current (peaks). The potential at which an oxidation reaction occurred was referred to as the anodic peak potential (or oxidation potential), and the potential at which a reduction occurred was referred to as is the cathodic peak (or reduction) potential.

In the case of `N[C@@H](Cc1c[nH]c2ccccc12)C(=O)O` [L-Trp, L-Tryptophan], the “Heavy chain Fab oxidation (W53) with increased luminosity (in words)” value (mAb1; 50 mg/mL mAb1 with 3.2 mM L-Trp, 10 days ambient light) is reported as “increased heavy chain Fab oxidation”, the “% Fc oxidation in mAb1” value (mAb1; 50 mg/mL mAb1 with 3.2 mM L-Trp, ambient light 300 lux) is reported as 5% and the “% Fc oxidation in mAb1” value (mAb1; 50 mg/mL mAb1 with 3.2 mM L-Trp, ambient light 10000 lux) is reported as 40%. For the same compound, the “Hydrogen peroxide produced under ambient light” value (mAb1; L-Trp in formulation buffers containing 50 mg/mL mAb1, 300, 3000, 10000 lux, 1, 3, 7 days) was “in the micromolar range” and the “Oxidation Potential (anodic peak)” value [1] was 0.938 V vs Ag/AgCl.
